Values of other authors as cited in patent publication US20110195928A1, “Administration of Copper to an Animal” (priority 2001, published 2011).

Details: general statement of the description

copper edtate [edtates]
Solubility in water: insoluble
